Source: US20150328377A1, “COMPOSITION OF D-ALPHA HYDROXY ACIDS AND ANTIMICROBIALS” (BACTERIN INTERNATIONAL, INC., priority 2012, published 2015)
Where “and” joins values, the source holds several entries; their conditions need not be identical. Equal entries are not always repeated.

Tested on: S. aureus
Test: microplate biofilm formation assay (crystal violet)
Format: cell-based
Design: key to Relative Biofilm Score: crystal violet conc. / non-treated control conc. (1 = control)
Procedure: The synergy between a D-alpha hydroxy acid and an antimicrobial agent was determined through a standard microplate biofilm formation assay (Antimicrob Agents Chemother. 2009, 53, 4159-4166—which is incorporated in its entirety by reference). […] Before incubation each well received about 0, about 2, about 20, or about 200 μg/mL L- or D-lactic acids and about 0.0 or about 0.5 μg/mL chlorhexidine (CHX). The plates were incubated for approximately 20 hours at about 37° C. and then the supernatant of the wells was removed. Each well was gently washed 3 times with phosphate buffered saline, and the biofilm was fixed by incubating the plates at about 60° C. for about 1 hour. The biofilm was then stained by incubating at about 37° C. in about 100 μL about 0.5% crystal violet for about 20 minutes. The plates were then thoroughly rinsed with tap water to remove any excess crystal violet and dried. The residual crystal violet was then extracted with about 200 μL of about 33% acetic acid. About 150 μL of the about 33% acetic acid extractant was then diluted with about 2000 μL acetonitrile and the quantity of crystal violet was determined by measuring the absorbance of the resulting solution at about 590 nanometers. The concentration of crystal violet is directly proportional to the amount of biofilm formation in each well. Each set of concentrations was measured at least four times. The average crystal violet concentration was divided by the average crystal violet concentration for a non-treated control (about 0.0 μg/mL CHX and about 0.0 μg/mL lactic acid) to obtain a relative biofilm formation score. In the same manner as Example 1, the synergy between a D-alpha hydroxy acid and the combination of rifampin and minocycline was determined. […] Before incubation each well received about 0 μg/mL or about 200 μg/mL of L- or D-lactic acid and about 0 ng/mL or about 5 ng/mL each of rifampin and minocycline. The plates were incubated for about 20 hours at about 37° C. and then the supernatant of the wells was removed. The quantity of biofilm formation in each well was determined using the protocol detailed in Example 1.

[1] = 2 μg/mL lactic acid combined with 0.5 μg/mL CHX
[2] = 2 μg/mL lactic acid, 0.0 μg/mL CHX
[3] = 20 μg/mL lactic acid combined with 0.5 μg/mL CHX
[4] = 20 μg/mL lactic acid, 0.0 μg/mL CHX
[5] = 200 μg/mL lactic acid combined with 5.0 ng/mL Rif/Min, Table 2
[6] = 200 μg/mL lactic acid combined with 0.5 μg/mL CHX
[7] = 200 μg/mL lactic acid, 0.0 μg/mL CHX
[8] = 200 μg/mL lactic acid, 0.0 ng/mL Rif/Min, Table 2

| Compound | Relative Biofilm Score (0.5 μg/mL CHX alone (0 μg/mL lactic acid), relative to non-treated control, values approximate) | Relative Biofilm Score [1] | Relative Biofilm Score [2] | Relative Biofilm Score [3] | Relative Biofilm Score [4] | Relative Biofilm Score [5] | Relative Biofilm Score [6] | Relative Biofilm Score [7] | Relative Biofilm Score [8] | effect on biofilm formation (combined with chlorhexidine, not by itself) | effect on biofilm formation (combined with rifampin and minocycline, not by itself) | effect on biofilm formation (alone or in combination with chlorhexidine at any concentration) | effect on biofilm formation (by itself or combined with rifampin and minocycline) |
| --- | --- | --- | --- | --- | --- | --- | --- | --- | --- | --- | --- | --- | --- |
| [H]/N=C(\N/C(=N/[H])NCCCCCCNC(=N)NC(=N)Nc1ccc(Cl)cc1)Nc1ccc(Cl)cc1 [CHX, chlorhexidine] | 0.26 ± 0.04 and 0.26 ± 0.05 |  |  |  |  |  |  |  |  |  |  |  |  |
| C[C@@H](O)C(=O)O [D-Lactic Acid, D-lactic acid] |  | 0.19 ± 0.03 | 1.07 ± 0.24 | 0.12 ± 0.03 | 1.11 ± 0.17 | 0.27 ± 0.04 | 0.04 ± 0.01 | 1.10 ± 0.20 | 0.92 ± 0.24 | statistically significant dose dependent decrease in biofilm formation | statistically significant decrease in biofilm formation |  |  |
| C[C@H](O)C(=O)O [L-Lactic Acid, L-lactic acid] |  | 0.23 ± 0.05 | 1.01 ± 0.20 | 0.33 ± 0.08 | 1.06 ± 0.18 | 0.43 ± 0.03 | 0.27 ± 0.07 | 1.16 ± 0.18 | 1.04 ± 0.15 |  |  | did not show any statistically significant effects on biofilm formation | did not show any reduction in biofilm formation |
